Measured values as given in ChEMBL document CHEMBL1641398, “Norlignans, acylphloroglucinols, and a dimeric xanthone from Hypericum chinense” (2010).
In brackets after ≈: the same amount, converted by molar mass.

What was measured:
Format in all cases: functional
Staphylococcus aureus [1] = experiment: Antibacterial activity against erythromycin-resistant Staphylococcus aureus RN4220 after 18 hrs by MTT assay; conditions: RN4220, 18 h
Staphylococcus aureus [2] = experiment: Antibacterial activity against Staphylococcus aureus ATCC […] after 18 hrs by MTT assay
Staphylococcus aureus [3] = experiment: Antibacterial activity against epidemic methicillin-resistant Staphylococcus aureus 16 after 18 hrs by MTT assay; conditions: Staphylococcus aureus, 16, 18 h
Staphylococcus aureus [4] = experiment: Antibacterial activity against multi drug-resistant Staphylococcus aureus XU212 after 18 hrs by MTT assay; conditions: XU212, 18 h
Staphylococcus aureus [5] = experiment: Antibacterial activity against multi drug-resistant Staphylococcus aureus 1199B after 18 hrs by MTT assay
Staphylococcus aureus [6] = experiment: Antibacterial activity against epidemic methicillin-resistant Staphylococcus aureus 15 after 18 hrs by MTT assay; conditions: Staphylococcus aureus, 15, 18 h

## CCC(C)C(=O)c1c(O)cc(OC)c(C)c1O (stereo not drawn) [ASPIDINOL D]
Staphylococcus aureus [1]
  MIC: 8 µg/mL (≈ 33.6 µM)
Staphylococcus aureus [2]
  MIC: 8 µg/mL (≈ 33.6 µM)
Staphylococcus aureus [3]
  MIC: 4 µg/mL (≈ 16.8 µM)
Staphylococcus aureus [4]
  MIC: 8 µg/mL (≈ 33.6 µM)
Staphylococcus aureus [5]
  MIC: 4 µg/mL (≈ 16.8 µM)
Staphylococcus aureus [6]
  MIC: 4 µg/mL (≈ 16.8 µM)

## CCn1cc(C(=O)O)c(=O)c2cc(F)c(N3CCNCC3)cc21 [NORFLOXACIN]
Staphylococcus aureus [1]
  MIC: 0.5 µg/mL (≈ 1.57 µM)
Staphylococcus aureus [2]
  MIC: 0.5 µg/mL (≈ 1.57 µM)
Staphylococcus aureus [3]
  MIC: 128 µg/mL (≈ 401 µM)
Staphylococcus aureus [4]
  MIC: 8 µg/mL (≈ 25.1 µM)
Staphylococcus aureus [5]
  MIC: 32 µg/mL (≈ 100 µM)
Staphylococcus aureus [6]
  MIC: 0.5 µg/mL (≈ 1.57 µM)

## COc1cc(O)c(C(=O)CC(C)C)c(O)c1C [ASPIDINOL C]
Staphylococcus aureus [1]
  MIC: 16 µg/mL (≈ 67.1 µM)
Staphylococcus aureus [2]
  MIC: 8 µg/mL (≈ 33.6 µM)
Staphylococcus aureus [3]
  MIC: 4 µg/mL (≈ 16.8 µM)
Staphylococcus aureus [4]
  MIC: 32 µg/mL (≈ 134 µM)
Staphylococcus aureus [5]
  MIC: 2 µg/mL (≈ 8.39 µM)
Staphylococcus aureus [6]
  MIC: 8 µg/mL (≈ 33.6 µM)
